This is an account of results in patent US6887890B2, “Compounds exhibiting thrombopoietin-like activities” (Chugai Seiyaku Kabushiki Kaisha, priority 2000, dated 2005).

The assay deals with Mpl-expressing Ba/F3 cell line (human mpl gene). The assay is described as follows: Measurement of thrombopoietin (TPO) activity: viable cell count of Mpl-expressing Ba/F3 cell line (Cell Count Reagent SF, absorbance 450 nm). The format is cell-based. As to conditions: for Concentration: concentration corresponding to the maximum TPO activity value; for TPO activity: maximum TPO activity value, ODt/ODs×100 relative to maximum reaction of human TPO, Mpl-expressing Ba/F3 cells cultured at 37° C. for one day, at the concentration given. As for the experimental part:
The TPO activities of the compounds of the invention obtained in the aforementioned examples were measured by the procedure described below, for evaluation of their thrombopoietic effects.
Establishment of Mpl-expressing Ba/F3 Cell Line
The human mpl gene was cloned from cDNAs of the human erythroleukemia cell line HEL by PCR, and was incorporated into pCOS1 to construct an expression vector. The expression vector was transfected into Ba/F3 cells by electroporation method, and an Mpl-expressing Ba/F3 clone was established.
Measurement of Thrombopoietin (TPO) Activity
The cytokine-eliminated Mpl-expressing Ba/F3 line was plated in a 96-well plate at 25,000 cells/well. DMSO solutions containing the compounds obtained in each of the examples were then prepared to different specified concentration ranges, and each solution was added to the Mpl-expressing Ba/F3 cell line (final DMSO concentration: ≦0.1%), and the cell were cultured at 37° C. for one day. Human TPO (by R&D Systems or Genzyme) was used as a positive control.
Each of the cultured Mpl-expressing Ba/F3 cell lines was subjected to absorbance measurement at a wavelength of 450 nm (reference wavelength: 620 nm), corresponding to the viable cell count, using Cell Count Reagent SF (by Nacalai Tesque Inc.). The TPO activity of each compound for the Mpl-expressing Ba/F3 cell line was determined based on the following formula. TPO activity (%)=ODt/ODs×100
ODs: Absorbance at maximum reaction of human TPO (wavelength: 450-620 nm).
ODt: Absorbance of test solution (wavelength: 450-620 nm).
Tables 1 and 2 show the maximum TPO activity values and the corresponding concentrations of each compound, as obtained by the test described above.

`COc1ccc2[nH]c(C)c(CC(=O)N[C@@H](CCN)C(=O)Nc3ccc(C(c4ccc(NC(=O)[C@H](CCN)NC(=O)Cc5c(C)[nH]c6ccc(OC)cc56)cc4)c4ccc(NC(=O)[C@H](CCN)NC(=O)Cc5c(C)[nH]c6ccc(OC)cc56)cc4)cc3)c2c1.O=C(O)C(F)(F)F` [Example 133, tris[4-[β-aminomethyl-N-[2-(5-methoxy-2-methyl-1H-indol-3-yl)acetyl]-L-alanyl]aminophenyl]methane trifluoroacetate] came in with a Concentration of 50 µM and a TPO activity of 89.6%.

As to `NCCC[C@H](NC(=O)Cc1c[nH]c2ccccc12)C(=O)Nc1ccc(C(c2ccc(NC(=O)[C@H](CCCN)NC(=O)Cc3c[nH]c4ccccc34)cc2)c2ccc(NC(=O)[C@H](CCCN)NC(=O)Cc3c[nH]c4ccccc34)cc2)cc1.O=C(O)C(F)(F)F` [Example 134, tris[4-[N-α-[2-(1H-indol-3-yl)acetyl]-L-ornithyl]aminophenyl]methane trifluoroacetate], the Concentration turned out to be 50 µM and the TPO activity is 67.2%.

For `COc1ccc2[nH]c(C)c(CC(=O)N[C@@H](CCCN)C(=O)Nc3ccc(C(c4ccc(NC(=O)[C@H](CCCN)NC(=O)Cc5c(C)[nH]c6ccc(OC)cc56)cc4)c4ccc(NC(=O)[C@H](CCCN)NC(=O)Cc5c(C)[nH]c6ccc(OC)cc56)cc4)cc3)c2c1.O=C(O)C(F)(F)F` [Example 135, tris[4-[N-α-[2-(5-methoxy-2-methyl-1H-indol-3-yl)acetyl]-L-ornithyl]aminophenyl]methane trifluoroacetate], the Concentration worked out at 50 µM and the TPO activity was found to be 15.8%.

As for `COc1ccc2c(CC(=O)N[C@H](CCCCN)C(=O)Nc3ccc(C(c4ccc(NC(=O)[C@@H](CCCCN)NC(=O)Cc5c(C)[nH]c6cc(OC)ccc56)cc4)c4ccc(NC(=O)[C@@H](CCCCN)NC(=O)Cc5c(C)[nH]c6cc(OC)ccc56)cc4)cc3)c(C)[nH]c2c1.Cl` [Example 146, tris[4-[N-α-[2-(6-methoxy-2-methyl-1H-indol-3-yl)acetyl]-D-lysyl]aminophenyl]methane hydrochloride], the Concentration came out at 25 µM and the TPO activity was 83.6%.

For the compound `CCc1[nH]c2ccccc2c1CC(=O)N[C@H](CCCCN)C(=O)Nc1ccc(C(c2ccc(NC(=O)[C@@H](CCCCN)NC(=O)Cc3c(CC)[nH]c4ccccc34)cc2)c2ccc(NC(=O)[C@@H](CCCCN)NC(=O)Cc3c(CC)[nH]c4ccccc34)cc2)cc1.Cl` [Example 148, tris[4-[N-α-[2-(2-ethyl-1H-indol-3-yl)acetyl]-D-lysyl]aminophenyl]methane hydrochloride], the Concentration came out at 25 µM and the TPO activity was determined as 73.6%.

`Cl.NCCCC[C@@H](NC(=O)c1cc2cc(O)ccc2[nH]1)C(=O)Nc1ccc(C(c2ccc(NC(=O)[C@@H](CCCCN)NC(=O)c3cc4cc(O)ccc4[nH]3)cc2)c2ccc(NC(=O)[C@@H](CCCCN)NC(=O)c3cc4cc(O)ccc4[nH]3)cc2)cc1` [Example 151, tris[4-[N-α-(5-hydroxy-1H-indol-2-yl)carbonyl-D-lysyl]aminophenyl]methane hydrochloride] gave a Concentration of 50 µM and a TPO activity of 90.8%.

The compound `Cl.NCCCC[C@@H](NC(=O)c1cccc2[nH]ccc12)C(=O)Nc1ccc(C(c2ccc(NC(=O)[C@@H](CCCCN)NC(=O)c3cccc4[nH]ccc34)cc2)c2ccc(NC(=O)[C@@H](CCCCN)NC(=O)c3cccc4[nH]ccc34)cc2)cc1` [Example 152, tris[4-[N-α-(1H-indol-4-yl)carbonyl-D-lysyl]aminophenyl]methane hydrochloride] had a Concentration of 25 µM and a TPO activity of 62.0%.

`Cc1cccc2c(CC(=O)N[C@H](CCCCN)C(=O)Nc3ccc(C(c4ccc(NC(=O)[C@@H](CCCCN)NC(=O)Cc5c[nH]c6c(C)cccc56)cc4)c4ccc(NC(=O)[C@@H](CCCCN)NC(=O)Cc5c[nH]c6c(C)cccc56)cc4)cc3)c[nH]c12.Cl` [Example 155, tris[4-[N-α-[2-(7-methyl-1H-indol-3-yl)acetyl]-D-lysyl]aminophenyl]methane hydrochloride] came in with a Concentration of 25 µM and a TPO activity of 44.3%.

`Cl.NCCCC[C@@H](NC(=O)c1cnccn1)C(=O)Nc1ccc(C(c2ccc(NC(=O)[C@@H](CCCCN)NC(=O)c3cnccn3)cc2)c2ccc(NC(=O)[C@@H](CCCCN)NC(=O)c3cnccn3)cc2)cc1` [Example 157, tris[4-[N-α-(pyrazin-2-yl)carbonyl-D-lysyl]aminophenyl]methane hydrochloride] displayed a Concentration of 50 µM and a TPO activity of 36.1%.

Regarding `Cl.NCCCC[C@@H](NC(=O)Cc1cccc(O)c1)C(=O)Nc1ccc(C(c2ccc(NC(=O)[C@@H](CCCCN)NC(=O)Cc3cccc(O)c3)cc2)c2ccc(NC(=O)[C@@H](CCCCN)NC(=O)Cc3cccc(O)c3)cc2)cc1` [Example 159, tris[4-[N-α-[2-(3-hydroxyphenyl)acetyl]-D-lysyl]aminophenyl]methane hydrochloride], the Concentration is 25 µM and the TPO activity is 18.6%.

Turning to `Cl.NCCCC[C@@H](NC(=O)[C@H](N)Cc1ccc(O)cc1)C(=O)Nc1ccc(C(c2ccc(NC(=O)[C@@H](CCCCN)NC(=O)[C@H](N)Cc3ccc(O)cc3)cc2)c2ccc(NC(=O)[C@@H](CCCCN)NC(=O)[C@H](N)Cc3ccc(O)cc3)cc2)cc1` [Example 160, tris[4-[N-α-(D-tyrosyl)-D-lysyl]aminophenyl]methane hydrochloride], the Concentration was determined as 100 µM and the TPO activity worked out at 22.5%.

`Cl.NCCCC[C@@H](NC(=O)[C@H](N)Cc1c[nH]c2ccccc12)C(=O)Nc1ccc(C(c2ccc(NC(=O)[C@@H](CCCCN)NC(=O)[C@H](N)Cc3c[nH]c4ccccc34)cc2)c2ccc(NC(=O)[C@@H](CCCCN)NC(=O)[C@H](N)Cc3c[nH]c4ccccc34)cc2)cc1` [Example 161, tris[4-[N-α-(D-tryptophyl)-D-lysyl]aminophenyl]methane hydrochloride]: the Concentration came to 25 µM and the TPO activity amounted to 65.6%.

With `Cl.NCCCC[C@@H](NC(=O)Cc1cccs1)C(=O)Nc1ccc(C(c2ccc(NC(=O)[C@@H](CCCCN)NC(=O)Cc3cccs3)cc2)c2ccc(NC(=O)[C@@H](CCCCN)NC(=O)Cc3cccs3)cc2)cc1` [Example 164, tris[4-[N-α-[2-(thiophen-2-yl)acetyl]-D-lysyl]aminophenyl]methane hydrochloride], the Concentration was 25 µM and the TPO activity stood at 24.9%.

`Cl.NCCCC[C@@H](NC(=O)Cc1ccccn1)C(=O)Nc1ccc(C(c2ccc(NC(=O)[C@@H](CCCCN)NC(=O)Cc3ccccn3)cc2)c2ccc(NC(=O)[C@@H](CCCCN)NC(=O)Cc3ccccn3)cc2)cc1` [Example 172, tris[4-[N-α-[2-(pyridin-2-yl)acetyl]-D-lysyl]aminophenyl]methane hydrochloride] registered a Concentration of 100 µM and a TPO activity of 24.4%.

In turn, `Cl.NCCCC[C@@H](NC(=O)Cc1ccncc1)C(=O)Nc1ccc(C(c2ccc(NC(=O)[C@@H](CCCCN)NC(=O)Cc3ccncc3)cc2)c2ccc(NC(=O)[C@@H](CCCCN)NC(=O)Cc3ccncc3)cc2)cc1` [Example 173, tris[4-[N-α-[2-(pyridin-4-yl)acetyl]-D-lysyl]aminophenyl]methane hydrochloride] showed a Concentration of 100 µM and a TPO activity of 35.4%.

`NCCCC[C@@H](NC(=O)c1cccc(O)c1)C(=O)Nc1ccc(C(c2ccc(NC(=O)[C@@H](CCCCN)NC(=O)c3cccc(O)c3)cc2)c2ccc(NC(=O)[C@@H](CCCCN)NC(=O)c3cccc(O)c3)cc2)cc1.O=C(O)C(F)(F)F` [Example 186, tris[4-[N-α-(3-hydroxybenzoyl)-D-lysyl]aminophenyl]methane trifluoroacetate] displayed a Concentration of 25 µM and a TPO activity of 35.8%.

On to `N[C@H](CCCCNC(=O)Cc1ccccc1)C(=O)Nc1ccc(C(c2ccc(NC(=O)[C@H](N)CCCCNC(=O)Cc3ccccc3)cc2)c2ccc(NC(=O)[C@H](N)CCCCNC(=O)Cc3ccccc3)cc2)cc1.O=C(O)C(F)(F)F` [Example 187, tris[4-[N-ε-(2-phenylacetyl)-D-lysyl]aminophenyl]methane trifluoroacetate], for which the Concentration amounted to 25 µM and the TPO activity stood at 60.2%.

Compound `NCCCC[C@@H](NC(=O)Cc1ccc(O)c(O)c1)C(=O)Nc1ccc(C(c2ccc(NC(=O)[C@@H](CCCCN)NC(=O)Cc3ccc(O)c(O)c3)cc2)c2ccc(NC(=O)[C@@H](CCCCN)NC(=O)Cc3ccc(O)c(O)c3)cc2)cc1.O=C(O)C(F)(F)F` [Example 188, tris[4-[N-α-[2-(3,4-dihydroxyphenyl)acetyl]-D-lysyl]aminophenyl]methane trifluoroacetate] yielded a Concentration of 100 µM and a TPO activity of 10.1%.
